# Patent US8618300B2, “Indolizine inhibitors of leukotriene production” (Boehringer Ingelheim International GmbH, priority 2008, dated 2013)
# pIC50: −log10 of the molar value.
# Target: T1, recombinant human FLAP protein (Homo sapiens, UniProt P20292)
# T1 construct: made in house; host or cells: Sf9 insect cells (100,000 x g membrane pellet)
# T1 sequence (P20292 1-161): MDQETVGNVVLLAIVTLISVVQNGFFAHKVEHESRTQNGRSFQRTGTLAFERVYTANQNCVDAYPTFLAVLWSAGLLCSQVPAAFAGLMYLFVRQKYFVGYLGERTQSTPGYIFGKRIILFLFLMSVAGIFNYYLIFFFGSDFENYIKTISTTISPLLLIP
# Assay: FLAP binding assay, Scintillation Proximity Assay, displacement of [125I]L-691,831
# Conditions: read-out: hFLAP binding IC50
# Protocol: Compounds are assessed for the ability to bind to FLAP in a binding assay that measures compound-specific displacement of an iodinated (^1251) FLAP inhibitor via a Scintillation Proximity Assay format (adapted from S. Charleson et al., Mol. Pharmacol., 1992, 41, 873-879).
# Cell pellets produced from sf9 insect cells expressing recombinant human FLAP protein are resuspended in buffer A [15 mM Tris-HCl (pH 7.5), 2 mM MgCl2, 0.3 mM EDTA, 1 mM PMSF]. The cells are lysed with a Dounce homogenizer and the material is centrifuged at 10,000×g for 10 minutes. The supernatant is then collected and centrifuged at 100,000×g for 60 minutes. To prepare membrane protein for an assay, an aliquot of the 100,000×g pellet is resuspended in 1 ml of buffer A, Dounce homogenized, and finally subjected to polytron mixing (30 seconds). Membrane protein (25 μl, 5 μg) is mixed with WGA SPA beads (Amersham) and stirred for 1 h. To an assay plate (Perkin Elmer FlexiPlate) is added 25 μl of test compound prepared in Binding buffer [100 mM Tris (pH 7.5), 140 mM NaCl, 5% glycerol, 2 mM EDTA, 0.5 mM TCEP, 0.05% Tween 20], 25 μl of [^125I]L-691,831 (an iodinated analog of MK-591, Charleson et al. Mol. Pharmacol., 41, 873-879, 1992) and finally 50 μl of the bead/protein mixture. (final concentrations: beads, 200 μg/well; protein, 5 μg/well; [^125I] probe, 0 08 nM/well (17 nCi/well). The plates are shaken for 2 h before reading on a Microbeta plate reader. Non-specific binding is determined by the addition of 10 μM cold L-691,831 compound.
row,SMILES,pIC50
1,COc1ccc(-c2ccc(C(=O)c3c(CC(C)(C)C(=O)O)c(C(=O)C(C)(C)C)c4cc(C(C)C)ccn34)cc2)cn1,6.63
2,CC(C)(C)C(=O)c1c(CC(C)(C)C(=O)O)c(C(=O)c2ccc(Cl)cc2)c2ccc(OCc3ccc4ccccc4n3)cn12,7.85
3,Cc1nc(COc2ccn3c(C(=O)c4ccc(Cl)cc4)c(CC(C)(C)C(=O)O)c(C(=O)C(C)(C)C)c3c2)no1,7.05
4,COc1ccc(C(=O)c2c(CC(C)(C)C(=O)O)c(C(=O)C(C)(C)C)c3cc(OCc4nc5ccccc5s4)ccn23)cc1,9.00
5,CC(C)(C)C(=O)c1c(CC(C)(C)C(=O)O)c(C(=O)c2ccc(Cl)cc2)n2ccc(OCc3nc4ccccc4s3)cc12,8.40
6,"CCC(C)(Cc1c(C(=O)C(C)(C)C)c2cc(OCc3csc(C)n3)ccn2c1C(=O)c1ccc(OC)cc1)C(=O)O (stereo not shown) [2-({1-(2,2-dimethylpropanoyl)-3-[(4-methoxyphenyl)carbonyl]-7-[(2-methyl-1,3-thiazol-4-yl)methoxy]indolizin-2-yl}methyl)-2-methylbutanoic acid]",8.70
7,"COc1ccc(C(=O)c2c(CC(C(=O)O)C(C)C)c(C(=O)C(C)(C)C)c3cc(OCc4csc(C)n4)ccn23)cc1 (stereo not shown) [2-({1-(2,2-dimethylpropanoyl)-3-[(4-methoxyphenyl)carbonyl]-7-[(2-methyl-1,3-thiazol-4-yl)methoxy]indolizin-2-yl}methyl)-3-methylbutanoic acid]",7.89
8,"CCCC(Cc1c(C(=O)C(C)(C)C)c2cc(OCc3csc(C)n3)ccn2c1C(=O)c1ccc(OC)cc1)C(=O)O (stereo not shown) [2-({1-(2,2-dimethylpropanoyl)-3-[(4-methoxyphenyl)carbonyl]-7-[(2-methyl-1,3-thiazol-4-yl)methoxy]indolizin-2-yl}methyl)pentanoic acid]",8.15
9,"COc1ccc(C(=O)c2c(CC(C(=O)O)C(C)C)c(C(=O)C(C)(C)C)c3cc(OCc4nc(C)cs4)ccn23)cc1 (stereo not shown) [2-({1-(2,2-dimethylpropanoyl)-3-[(4-methoxyphenyl)carbonyl]-7-[(4-methyl-1,3-thiazol-2-yl)methoxy]indolizin-2-yl}methyl)-3-methylbutanoic acid]",8.40
10,"CCC(C)(Cc1c(C(=O)C(C)(C)C)c2cc(OCc3cccc(C)n3)ccn2c1C(=O)c1ccc(OC)cc1)C(=O)O (stereo not shown) [2-({1-(2,2-dimethylpropanoyl)-3-[(4-methoxyphenyl)carbonyl]-7-[(6-methylpyridin-2-yl)methoxy]indolizin-2-yl}methyl)-2-methylbutanoic acid]",8.70
11,"COc1ccc(C(=O)c2c(CC(C(=O)O)C(C)C)c(C(=O)C(C)(C)C)c3cc(OCc4cccc(C)n4)ccn23)cc1 (stereo not shown) [2-({1-(2,2-dimethylpropanoyl)-3-[(4-methoxyphenyl)carbonyl]-7-[(6-methylpyridin-2-yl)methoxy]indolizin-2-yl}methyl)-3-methylbutanoic acid]",8.52
12,"CCCC(Cc1c(C(=O)C(C)(C)C)c2cc(OCc3cccc(C)n3)ccn2c1C(=O)c1ccc(OC)cc1)C(=O)O (stereo not shown) [2-({1-(2,2-dimethylpropanoyl)-3-[(4-methoxyphenyl)carbonyl]-7-[(6-methylpyridin-2-yl)methoxy]indolizin-2-yl}methyl)pentanoic acid]",8.52
13,"CCCC(Cc1c(C(=O)C(C)(C)C)c2cc(OCc3nc(C)cs3)ccn2c1C(=O)c1ccc(Cl)c(Cl)c1)C(=O)O (stereo not shown) [2-({3-[(3,4-dichlorophenyl)carbonyl]-1-(2,2-dimethylpropanoyl)-7-[(4-methyl-1,3-thiazol-2-yl)methoxy]indolizin-2-yl}methyl)pentanoic acid]",7.82
14,"CCCC(Cc1c(C(=O)C(C)(C)C)c2cc(OCc3cccc(C)n3)ccn2c1C(=O)c1ccc(Cl)c(Cl)c1)C(=O)O (stereo not shown) [2-({3-[(3,4-dichlorophenyl)carbonyl]-1-(2,2-dimethylpropanoyl)-7-[(6-methylpyridin-2-yl)methoxy]indolizin-2-yl}methyl)pentanoic acid]",8.70

# The remaining lines, values ahead:
row,pIC50,SMILES
1,8.52,"CCCC(Cc1c(C(=O)C(C)(C)C)c2cc(OCc3cccc(C)n3)ccn2c1C(=O)c1ccc(Cl)c(C)c1)C(=O)O (stereo not shown) [2-({3-[(4-chloro-3-methylphenyl)carbonyl]-1-(2,2-dimethylpropanoyl)-7-[(6-methylpyridin-2-yl)methoxy]indolizin-2-yl}methyl)pentanoic acid]"
2,9.00,"COc1ccc(C(=O)c2c(CC(C(=O)O)C(C)C)c(C(=O)C(C)(C)C)c3cc(OCc4nc5ccccc5s4)ccn23)cc1 (stereo not shown) [2-({7-(1,3-benzothiazol-2-ylmethoxy)-1-(2,2-dimethylpropanoyl)-3-[(4-methoxyphenyl)carbonyl]indolizin-2-yl}methyl)-3-methylbutanoic acid]"
3,9.00,"COc1ccc(C(=O)c2c(CC(C(=O)O)C(C)C)c(C(=O)C(C)(C)C)c3cc(OCc4ccc5ccccc5n4)ccn23)cc1 (stereo not shown) [2-{[1-(2,2-dimethylpropanoyl)-3-[(4-methoxyphenyl)carbonyl]-7-(quinolin-2-ylmethoxy)indolizin-2-yl]methyl}-3-methylbutanoic acid]"
4,9.00,"COc1ccc(C(=O)c2c(CC(C)(C)C(=O)O)c(C(=O)C(C)(C)C)c3cc(OCc4ccc5ccccc5n4)ccn23)cc1 [3-[1-(2,2-dimethylpropanoyl)-3-[(4-methoxyphenyl)carbonyl]-7-(quinolin-2-ylmethoxy)indolizin-2-yl]-2,2-dimethylpropanoic acid]"
5,7.17,"COc1ccncc1-c1ccc(C(=O)c2c(CC(C)(C)C(=O)O)c(C(=O)C(C)(C)C)c3cc(OCc4ccccn4)ccn23)cc1 [3-[1-(2,2-dimethylpropanoyl)-3-{[4-(4-methoxypyridin-3-yl)phenyl]carbonyl}-7-(pyridin-2-ylmethoxy)indolizin-2-yl]-2,2-dimethylpropanoic acid]"
6,7.66,"COc1cncc(-c2ccc(C(=O)c3c(CC(C)(C)C(=O)O)c(C(=O)C(C)(C)C)c4cc(OCc5ccccn5)ccn34)cc2)c1 [3-[1-(2,2-dimethylpropanoyl)-3-{[4-(5-methoxypyridin-3-yl)phenyl]carbonyl}-7-(pyridin-2-ylmethoxy)indolizin-2-yl]-2,2-dimethylpropanoic acid]"
7,6.78,"CC(C)c1ccn2c(C(=O)c3ccc(-c4cccnc4)cc3)c(CC(C)(C)C(=O)O)c(C(=O)C(C)(C)C)c2c1 [3-[1-(2,2-dimethylpropanoyl)-7-(propan-2-yl)-3-{[4-(pyridin-3-yl)phenyl]carbonyl}indolizin-2-yl]-2,2-dimethylpropanoic acid]"
8,6.50,"CC(C)c1ccn2c(C(=O)c3ccc(C(F)(F)F)cc3)c(CC(C)(C)C(=O)O)c(C(=O)C(C)(C)C)c2c1 [3-[1-(2,2-dimethylpropanoyl)-7-(propan-2-yl)-3-{[4-(trifluoromethyl)phenyl]carbonyl}indolizin-2-yl]-2,2-dimethylpropanoic acid]"
9,7.00,"Cc1nc(COc2ccn3c(C(=O)c4ccccc4)c(CC(C)(C)C(=O)O)c(C(=O)C(C)(C)C)c3c2)cs1 [3-[1-(2,2-dimethylpropanoyl)-7-[(2-methyl-1,3-thiazol-4-yl)methoxy]-3-(phenylcarbonyl)indolizin-2-yl]-2,2-dimethylpropanoic acid]"
10,8.05,"CC(C)(C)C(=O)c1c(CC(C)(C)C(=O)O)c(C(=O)c2ccc(Cl)cc2)c2ccc(OCc3nc4ccccc4s3)cn12 [3-[6-(1,3-benzothiazol-2-ylmethoxy)-1-[(4-chlorophenyl)carbonyl]-3-(2,2-dimethylpropanoyl)indolizin-2-yl]-2,2-dimethylpropanoic acid]"
11,8.52,"COc1ccc(C(=O)c2c(CC(C)(C)C(=O)O)c(C(=O)C(C)(C)C)c3cc(OCc4nc(C)cs4)ccn23)cc1 [3-{1-(2,2-dimethylpropanoyl)-3-[(4-methoxyphenyl)carbonyl]-7-[(4-methyl-1,3-thiazol-2-yl)methoxy]indolizin-2-yl}-2,2-dimethylpropanoic acid]"
12,8.52,"Cc1ccc(C(=O)c2c(CC(C)(C)C(=O)O)c(C(=O)C(C)(C)C)c3cc(OCc4cccc(C)n4)ccn23)cc1 [3-{1-(2,2-dimethylpropanoyl)-3-[(4-methylphenyl)carbonyl]-7-[(6-methylpyridin-2-yl)methoxy]indolizin-2-yl}-2,2-dimethylpropanoic acid]"
13,7.10,"CC(C)(C)C(=O)c1c(CC(C)(C)C(=O)O)c(C(=O)c2ccc(Cl)cc2)c2ccc(OCc3ccccn3)cn12 [3-{1-[(4-chlorophenyl)carbonyl]-3-(2,2-dimethylpropanoyl)-6-(pyridin-2-ylmethoxy)indolizin-2-yl}-2,2-dimethylpropanoic acid]"
14,8.40,"Cc1nc(COc2ccc3c(C(=O)c4ccc(Cl)cc4)c(CC(C)(C)C(=O)NS(C)(=O)=O)c(C(=O)C(C)(C)C)n3c2)cs1 [3-{1-[(4-chlorophenyl)carbonyl]-3-(2,2-dimethylpropanoyl)-6-[(2-methyl-1,3-thiazol-4-yl)methoxy]indolizin-2-yl}-2,2-dimethyl-N-(methylsulfonyl)propanamide]"
